The data set in a line: SO2 generation of Na2S2O5 in an open environment. It is filed as physicochemical. On the procedure: FIG. 6A and FIG. 6B show the results of a test that was performed to establish how Na2S2O5 reacts with the environment, and the effect of changes in relative humidity. 0.1 g of Na2S2O5 on sampling “boats” were placed on top of a counter; i.e., in an “open” environment. The concentration of SO2 gas (in parts per million, ppm) in the air at about 2.5 cm (about 1″) above the Na2S2O5 was measured daily for more than 50 days of testing. The relative humidity was also measured for each day of testing.

As for `O=S([O-])S(=O)(=O)[O-].[Na+].[Na+]` [Na2S2O5, sodium metabisulfite], the “average SO2 concentration generated” value (0.1 grams of Na2S2O5, open environment, air about 2.5 cm above the sample, up to 50 days) stood at 0.5 ppm. Moreover, the “duration of continuous SO2 generation” value (conclusion from the several tests) is recorded as “more than 50 days”.

These data come from patent US20150017380A1, “ABSORBENT FOOD PAD HAVING DISCRETE AIRFLOW PASSAGES” (Paper-Pak Industries, priority 2013, published 2015).
